What all share (format): functional
The subject of assay [1] is B16. Briefly: Induction of cell cycle arrest in mouse B16 cells assessed as accumulation at G0/G1 phase incubated for 24 hrs by PI staining based flow cytometry analysis (reference value: 56.59 %).
The test system of assay [2] is A-375. Put plainly: Induction of cell cycle arrest in human A-375 cells assessed as accumulation at G2/M phase incubated for 24 hrs by PI staining based flow cytometry analysis (reference value: 8.87 %).
Assay [3] has as its system A-375. Briefly: Induction of cell cycle arrest in human A-375 cells assessed as accumulation at G0/G1 phase incubated for 24 hrs by PI staining based flow cytometry analysis (reference value: 56.69 %). (In general: A flow cytometer gives signals particle by particle.)
Assay [4] relates to A-375. Briefly: Induction of cell cycle arrest in human A-375 cells assessed as accumulation at S phase incubated for 24 hrs by PI staining based flow cytometry analysis (reference value: 34.44 %).
For assay [5], the system named is B16. Briefly: Induction of cell cycle arrest in mouse B16 cells assessed as accumulation at S phase incubated for 24 hrs by PI staining based flow cytometry analysis (reference value: 42.53 %).
In assay [6] the test system is B16. Put plainly: Induction of cell cycle arrest in mouse B16 cells assessed as accumulation at G2/M phase incubated for 24 hrs by PI staining based flow cytometry analysis (reference value: 0.88 %).

Turning to `N#C/C(=C\c1ccc(O)c(O)c1)C(=O)NCc1ccccc1`, the Activity in the assay with B16 [1] is listed as 82.17%; with A-375 [2] it was 6.92%; in the assay on A-375 [3], 61.48%; in the assay on A-375 [4] it was 31.61%; in the assay on B16 [5], 15.11%; in the assay on B16 [6], 2.72%.

For the origin of these results see ChEMBL document CHEMBL5120867, “Hernandezine Regulates Proliferation and Autophagy-Induced Apoptosis in Melanoma Cells” (J Nat Prod, 2022).
